Reference: PubChem BioAssay AID651857 (Broad Institute, 2012)
Values joined by “and” are separate entries in the source; they are usually repeats but may differ in a detail not shown here. Equal entries are not always repeated. Active and inactive are the calls of the source. How the calls were made is not given here.

Test system: not listed separately
Assay: M tuberculosis starvation survival, cfu enumeration, confirmatory dry powder inhibitor dose response, ic90 (AID 651857)
Conditions: M. tuberculosis starvation survival, CFU enumeration

Compound | outcome
O=S(=O)(Cc1cn(Cc2ccccc2)nn1)c1nnc(-c2ccc(Cl)cc2)o1 | inactive

Test system: M. tuberculosis starvation survival, CFU enumeration
Assay: as above
Conditions: not given

Compound | IC90
Clc1ccc(-c2nnc(SCc3cn(Cc4ccccc4)nn3)o2)cc1 | 2 µM and < 8 µM
Fc1ccc(-c2nnc(SCc3ccccc3)o2)cc1 | 31 µM
c1ccc(-n2cc(CSc3nnc(C4CCC4)o3)nn2)cc1 | 2 µM
Fc1ccc(-c2nnc(SCc3cn(-c4ccccc4)nn3)o2)cc1 | 2 µM
[N-]=[N+]=NCCOCCNC(=O)CCCOc1ccc(CS(=O)c2nnc(-c3ccc(Cl)cc3)o2)nc1 (stereo unspecified) | < 8 µM
O=S(=O)(Cc1ccccc1)c1nnc(-c2ccccc2)o1 | < 62 µM and 8 µM
O=S(Cc1cn(Cc2ccccc2)nn1)c1nnc(-c2ccc(Cl)cc2)o1 (stereo unspecified) | < 31 µM and 8 µM
O=S(Cc1cn(Cc2ccc(F)cc2)nn1)c1nnc(-c2ccc(Cl)cc2)o1 (stereo unspecified) | 2 µM
c1ccc(CSc2nnc(-c3cnco3)o2)cc1 | 16 µM
c1ccc(-c2nnc(SCCN3CCN(c4ccccc4)CC3)o2)cc1 | 16 µM
FC(F)(F)c1ccccc1CSc1nnc(-c2ccccc2)o1 | > 62 µM (inactive)
c1ccc(-c2nnc(SCc3ccccn3)o2)cc1 | 4 µM
[N-]=[N+]=NCCOCCNC(=O)CCCOc1ccc(CSc2nnc(-c3ccc(Cl)cc3)o2)nc1 | < 8 µM
CC(C)c1nnc(SCc2ccccc2)o1 | 125 µM
Fc1cccc(CSc2nnc(-c3ccccc3)o2)c1 | 31 µM
c1ccc(Cn2cc(CSc3nnc(C4CCCC4)o3)nn2)cc1 | 31 µM
Fc1ccc(CSc2nnc(-c3ccccc3)o2)cc1 | 62 µM
Clc1ccc(CSc2nnc(-c3ccccc3)o2)cc1 | 8 µM
Fc1ccc(Cn2cc(CSc3nnc(C4CCC4)o3)nn2)cc1 | 8 µM
FC(F)(F)Oc1ccc(CSc2nnc(-c3ccccc3)o2)cc1 | > 62 µM (inactive)
Clc1ccc(-c2nnc(SCc3cn(-c4ccccc4)nn3)o2)cc1 | 2 µM
COc1cccc(CSc2nnc(-c3ccccc3)o2)c1 | 16 µM
CN(Cc1ccccc1)c1nnc(-c2ccccc2)o1 | > 62 µM (inactive)
COCCSc1nnc(-c2ccccc2)o1 | 4 µM
O=S(Cc1ccccc1)c1nnc(-c2ccccc2)o1 (stereo unspecified) | < 8 µM and 2 µM
c1ccc(Cn2cc(CSc3nnc(C4CCC4)o3)nn2)cc1 | 8 µM
c1ccc(CSc2nnc(-c3ccccn3)o2)cc1 | 31 µM
c1ccc(COc2nnc(-c3ccccc3)o2)cc1 | > 62 µM (inactive)

Compound | IC90
Fc1cccc(-c2nnc(SCc3ccccc3)o2)c1 | 62 µM
[O-][n+]1ccccc1CSc1nnc(-c2ccccc2)o1 | > 62 µM (inactive)
c1ccc(CSc2nnc(-c3ccccc3)o2)cc1 | 8 µM
COc1ccc(CSc2nnc(-c3ccccc3)o2)cc1 | > 62 µM (inactive)
Fc1ccc(Cn2cc(CSc3nnc(-c4ccc(Cl)cc4)o3)nn2)cc1 | 2 µM
c1ccc(-c2nnc(SC3CCCCC3)o2)cc1 | 31 µM
c1ccc(CSc2nnc(-c3cccnc3)o2)cc1 | 62 µM
Fc1ccc(Cn2cc(CSc3nnc(-c4ccc(F)cc4)o3)nn2)cc1 | 2 µM
c1ccc(-n2cc(CSc3nnc(C4CCCC4)o3)nn2)cc1 | 4 µM
c1ccc(-c2nnc(SCCC3OCCCO3)o2)cc1 | 10 µM
Cc1ccc(-c2nnc(SCc3ccccc3)o2)cc1 | > 62 µM (inactive)
c1ccc(CSc2nnc(-c3cccs3)o2)cc1 | > 62 µM (inactive)
c1ccc(CSc2nnc(C3CCCC3)o2)cc1 | 31 µM
COc1cccc(-c2nnc(SCc3ccccn3)o2)c1 | < 8 µM
c1ccc(-c2nnc(SCc3cscn3)o2)cc1 | 62 µM
Brc1ccc(-c2nnc(SCc3ccccn3)o2)cc1 | < 8 µM
Fc1ccc(-c2nnc(SCc3cn(Cc4ccccc4)nn3)o2)cc1 | 2 µM
Fc1cccc(-c2nnc(SCc3ccccn3)o2)c1 | < 8 µM
Fc1ccc(-c2nnc(SCc3ccccn3)o2)cc1 | < 8 µM
FC1(F)CCN(CCSc2nnc(-c3ccccc3)o2)CC1 | > 62 µM (inactive)
N#Cc1ccccc1CSc1nnc(-c2ccccc2)o1 | > 62 µM (inactive)
Fc1ccc(Cn2cc(CSc3nnc(C4CCCC4)o3)nn2)cc1 | 8 µM
c1ccc(Cn2cc(CSc3nnc(-c4ccccc4)o3)nn2)cc1 | 4 µM
FC1(F)CN(CCSc2nnc(-c3ccccc3)o2)C1 | > 62 µM (inactive)
Brc1cccc(-c2nnc(SCc3ccccn3)o2)c1 | < 8 µM
COc1ccc(CSc2nnc(-c3ccc(Cl)cc3)o2)nc1 | < 8 µM
c1ccc(CCc2nnc(-c3ccccc3)o2)cc1 | > 62 µM (inactive)
